This experiment deals with T1, S. aureus TrmD (Staphylococcus aureus, UniProt Q2FZ43).
T1 construct: made in house; host or cells: E. coli BL21
T1 sequence (Q2FZ43 1-245): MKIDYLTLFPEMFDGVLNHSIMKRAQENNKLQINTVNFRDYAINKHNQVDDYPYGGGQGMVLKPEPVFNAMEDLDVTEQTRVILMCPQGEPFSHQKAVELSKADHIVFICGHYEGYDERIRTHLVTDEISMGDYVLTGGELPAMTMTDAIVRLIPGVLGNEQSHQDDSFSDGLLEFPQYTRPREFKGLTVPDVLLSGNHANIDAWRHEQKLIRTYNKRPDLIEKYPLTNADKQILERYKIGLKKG
Briefly: nanoSAR direct-to-biology FP displacement screening of crude triazoles. Conditions: crude triazole at 1 μM, assuming full conversion; 500 nM TrmD, 10 nM tracer 4; read-out: % displaced tracer. The experiment is classed as binding. The text has this:
Next, we conducted an S. aureus TrmD-targeting nanoSAR study. For this, alkyne 7 was reacted on a 96 nmol scale with an in-house diversity-oriented azide library (N = 320, mean pairwise Tanimoto similarity = 0.11) designed to cover a large chemical fragment space, generating a panel of 320 crude triazoles ready for FP assay investigation. The composition of the azide library is designed to be chemically diverse in several categories, including physicochemical properties such as polar surface area, lipophilicity, and the number of hydrogen bond donors and acceptors, as well as structural features like the number of aromatic rings (Figure S23). A complete list of chemical structures included in the azide library can be found in Table S4. In situ reaction conditions for CuAAC were adapted from Gehrtz et al., utilizing CuSO4, which is reduced in situ to Cu(I) by sodium ascorbate and stabilized by TBTA. Degassed water and DMSO (1:1) were used as solvents to prevent the oxidation from Cu(I) to Cu(II). For the synthesis of the triazole library, a master mix was prepared, containing all reaction components except the azides. All reactions were started by the addition of the respective azide in 24 μL at a final product concentration of 4 mM (96 nmol). Reaction mixtures were incubated for 16 h at room temperature and under an argon atmosphere in sealed 96-well plates.
For FP assay screening, we used 500 nM of S. aureus TrmD and 10 nM of tracer 4 in a total volume of 40 μL in 96-well plates. We performed control measurements and defined 10 nM of tracer 4 in buffer as 100% displacement and the DMSO control as 0% tracer displacement. […] The results of the FP screening were visualized in a waterfall plot and plate-based heatmaps (Figure , Figure S3).
Fluorescence polarization (FP) assays were performed as follows. The assays for H. influenzae TrmD have been described previously. All assays were conducted in technical triplicate using black 96-well half area plates. For the FP assays, a tracer (20 nM Cy5TPD for E. coli and H. influenzae TrmD, 10 nM tracer 4 for S. aureus TrmD) was mixed with the respective enzyme (2 μM E. coli TrmD, 2 μM H. influenzae TrmD, 500 nM S. aureus TrmD) in buffer (E. coli and H. influenzae TrmD: 50 mM HEPES, 500 mM NaCl, 5% Glycerol, pH 7.5, S. aureus TrmD: 40 mM Tris HCl, 100 mM NaCl, 10 mM MgCl2, 5% Glycerol, pH 7.5). The compounds were added in varying concentrations for K D-value determination. […] The Z-factor for tracer 4 was determined by measuring 48 replicates of the free tracer (positive controls, PC) and 48 replicates of a mixture of enzyme and tracer (negative controls, NC). The Z-factor is defined in terms of the means (μ) and standard deviations (σ) of the positive and negative controls and calculated as Z = 1–(3*(σnc + σpc)/(μnc–μpc)). […] Polarization values (mP) were determined from polarization-specific parallel and orthogonal fluorescence intensities. K D-values were calculated in GraphPad Prism 8.0.1 using the four-parameter Hill equation: y(% tracer bound) = bottom + ([ligand]-slope) × (top–bottom)/([ligand]-slope + K Dslope).
A commercial azide diversity library (Enamine) containing 320 azides at a concentration of 100 mM in DMSO in a 96-well tube rack was employed for this nanoSAR study. For the reaction of the azides with alkyne 7 via CuAAC, a master mix was prepared. […] The solvents were degassed with argon to avoid oxidation of the copper(I) during the reaction. To each well of a 96-well PCR plate (Applied Biosystems MicroAmp) were added 23 μL of the master mix and 1 μL of the 100 mM azide stock. The final concentrations in the Mastermix were: 8.7 mM sodium ascorbate (8.3 mM in reaction well), 1.1 mM TBTA (1.0 mM in reaction well), 4.3 mM 7 (4.1 mM in reaction well), 1.3 mM CuSO4×5 H2O (1.2 mM in reaction well).

For `CC(C)C(=O)NCCn1cc(-c2c[nH]c3nc[nH]c(=O)c23)nn1` [Compound 02D07, O=C1NC=NC=2NC=C(C=3N=NN(C3)CCNC(=O)C(C)C)C12], the inhibition at 1 µM is 41%.

`Cc1ccc2c(c1)[C@H](n1cc(-c3c[nH]c4nc[nH]c(=O)c34)nn1)CCC2` [Compound 01B04, O=C1NC=NC=2NC=C(C=3N=NN(C3)[C@H]4c5c(ccc(c5)C)CCC4)C12]: the inhibition at 1 µM was found to be 27%. To `C[C@@H](n1cc(-c2c[nH]c3nc[nH]c(=O)c23)nn1)C12CC(CO1)C2` [Compound 01F11, O=C1NC=NC=2NC=C(C=3N=NN(C3)[C@@H](C45OCC(C4)C5)C)C12] belongs 26%; to `O=c1[nH]cnc2[nH]cc(-c3cn(CCP(=O)(O)O)nn3)c12` [Compound 03C01, P([O-])([O-])(=O)CCN1N=NC(C=2C=3C(=O)NC=NC3NC2)=C1], 28%; to `CC(C)CN1CCO[C@H](Cn2cc(-c3c[nH]c4nc[nH]c(=O)c34)nn2)C1` [Compound 01G03, O=C1NC=NC=2NC=C(C=3N=NN(C3)C[C@H]4OCC[N@H+](C4)CC(C)C)C12], 46%. For the compound `Cc1c[nH]nc1Cn1cc(-c2c[nH]c3nc[nH]c(=O)c23)nn1` [Compound 04G01, O=C1NC=NC=2NC=C(C=3N=NN(C3)CC4=NNC=C4C)C12], the inhibition at 1 µM came out at 87%. Then `O=c1[nH]cnc2[nH]cc(-c3cn(C[C@H](O)c4ccc(Cl)cc4)nn3)c12` [Compound 02C04, Clc1ccc(cc1)[C@@H](O)CN2N=NC(C=3C=4C(=O)NC=NC4NC3)=C2], with 85%; and `O=C(Cn1cc(-c2c[nH]c3nc[nH]c(=O)c23)nn1)N1CCCCC1` [Compound 02F02, O=C1NC=NC=2NC=C(C=3N=NN(C3)CC(=O)N4CCCCC4)C12], with 32%. To `O=c1[nH]cnc2[nH]cc(-c3cn(Cc4cc(C(F)(F)F)on4)nn3)c12` [Compound 01H04, FC(F)(F)C=1ON=C(C1)CN2N=NC(C=3C=4C(=O)NC=NC4NC3)=C2] belongs 22%; to `O=c1[nH]cnc2[nH]cc(-c3cn(C4CCCCC4)nn3)c12` [Compound 02A08, O=C1NC=NC=2NC=C(C=3N=NN(C3)C4CCCCC4)C12], 11%; to `Cc1cccc(CCn2cc(-c3c[nH]c4nc[nH]c(=O)c34)nn2)n1` [Compound 03H03, O=C1NC=NC=2NC=C(C=3N=NN(C3)CCc4nc(ccc4)C)C12], 26%. Consider `O=c1[nH]cnc2[nH]cc(-c3cn(C[C@H]4CCCNC4)nn3)c12` [Compound 03H01, O=C1NC=NC=2NC=C(C=3N=NN(C3)C[C@@H]4C[NH2+]CCC4)C12], for which the inhibition at 1 µM worked out at 56%. As to `O=c1[nH]cnc2[nH]cc(-c3cn(Cc4ccc5c(c4)OCO5)nn3)c12` [Compound 03C03, O=C1NC=NC=2NC=C(C=3N=NN(C3)Cc4cc5OCOc5cc4)C12], the inhibition at 1 µM was 70%. To `O=c1[nH]cnc2[nH]cc(-c3cn(C[C@@H]4CNCCO4)nn3)c12` [Compound 02D04, O=C1NC=NC=2NC=C(C=3N=NN(C3)C[C@H]4OCC[NH2+]C4)C12] belongs 24%; to `O=c1[nH]cnc2[nH]cc(-c3cn(C[C@@H]4CCCCC4(F)F)nn3)c12` [Compound 04H03, F[C@@]1(F)[C@H](CN2N=NC(C=3C=4C(=O)NC=NC4NC3)=C2)CCCC1], 78%; to `COc1ccccc1C(C)(C)n1cc(-c2c[nH]c3nc[nH]c(=O)c23)nn1` [Compound 02B08, O=C1NC=NC=2NC=C(C=3N=NN(C3)C(c4c(OC)cccc4)(C)C)C12], 5.49%. As to `O=c1[nH]cnc2[nH]cc(-c3cn(CCn4cnc5ccccc54)nn3)c12` [Compound 03B04, O=C1NC=NC=2NC=C(C=3N=NN(C3)CCN4c5c(N=C4)cccc5)C12], the inhibition at 1 µM worked out at 71%. To `NCCCn1cc(-c2c[nH]c3nc[nH]c(=O)c23)nn1` [Compound 03E10, O=C1NC=NC=2NC=C(C=3N=NN(C3)CCC[NH3+])C12] belongs 68%. Take `Cn1cc(-n2cc(-c3c[nH]c4nc[nH]c(=O)c34)nn2)cn1` [Compound 01E10, O=C1NC=NC=2NC=C(C=3N=NN(C=4C=NN(C4)C)C3)C12]: the inhibition at 1 µM was found to be 17%. To `O=c1[nH]cnc2[nH]cc(-c3cn(Cc4nc5ccccc5[nH]4)nn3)c12` [Compound 01B08, O=C1NC=NC=2NC=C(C=3N=NN(C3)CC4=Nc5c(N4)cccc5)C12] belongs 43%. To `COC(=O)[C@@H]1CCC[C@H](n2cc(-c3c[nH]c4nc[nH]c(=O)c34)nn2)C1` [Compound 01D01, O=C(OC)[C@H]1C[C@@H](N2N=NC(C=3C=4C(=O)NC=NC4NC3)=C2)CCC1] belongs 33%; to `O=C(Cn1cc(-c2c[nH]c3nc[nH]c(=O)c23)nn1)NCc1ccccc1` [Compound 03A03, O=C1NC=NC=2NC=C(C=3N=NN(C3)CC(=O)NCc4ccccc4)C12], 36%. Then `COc1cccc(-n2cc(-c3c[nH]c4nc[nH]c(=O)c34)nn2)c1` [Compound 03G01, O=C1NC=NC=2NC=C(C=3N=NN(c4cc(OC)ccc4)C3)C12], with 11%.

Regarding `C[C@@H](C(=O)N1CCCC1)n1cc(-c2c[nH]c3nc[nH]c(=O)c23)nn1` [Compound 02E11, O=C1NC=NC=2NC=C(C=3N=NN(C3)[C@H](C(=O)N4CCCC4)C)C12], the inhibition at 1 µM was 20%. Then `Cc1nc2ccc(-n3cc(-c4c[nH]c5nc[nH]c(=O)c45)nn3)cc2s1` [Compound 01F07, S1c2c(N=C1C)ccc(N3N=NC(C=4C=5C(=O)NC=NC5NC4)=C3)c2], with 11%; and `O=c1[nH]cnc2[nH]cc(-c3cn(-c4ccc(Cl)cn4)nn3)c12` [Compound 02C03, Clc1cnc(N2N=NC(C=3C=4C(=O)NC=NC4NC3)=C2)cc1], with -1.83%; and `O=c1[nH]cnc2[nH]cc(-c3cn(-c4ccncc4)nn3)c12` [Compound 02C12, O=C1NC=NC=2NC=C(C=3N=NN(c4ccncc4)C3)C12], with 18%. Then `COc1ccc(-n2cc(-c3c[nH]c4nc[nH]c(=O)c34)nn2)cc1OC` [Compound 01E06, O=C1NC=NC=2NC=C(C=3N=NN(c4cc(OC)c(OC)cc4)C3)C12], with 19%; and `O=c1[nH]cnc2[nH]cc(-c3cn(-c4ccc(C(F)(F)F)cc4)nn3)c12` [Compound 03B09, FC(F)(F)c1ccc(N2N=NC(C=3C=4C(=O)NC=NC4NC3)=C2)cc1], with 15%; and `O=c1[nH]cnc2[nH]cc(-c3cn(-c4cccc(F)c4)nn3)c12` [Compound 04H04, Fc1cc(N2N=NC(C=3C=4C(=O)NC=NC4NC3)=C2)ccc1], with 16%. As for `O=c1[nH]cnc2[nH]cc(-c3cn([C@H]4C=CCCCC4)nn3)c12` [Compound 04B01, O=C1NC=NC=2NC=C(C=3N=NN(C3)[C@H]4C=CCCCC4)C12], the inhibition at 1 µM was 32%. To `NC1(c2noc(Cn3cc(-c4c[nH]c5nc[nH]c(=O)c45)nn3)n2)CCCCCC1` [Compound 02E06, O=C1NC=NC=2NC=C(C=3N=NN(C3)CC=4ON=C(N4)C5([NH3+])CCCCCC5)C12] belongs 24%.

Values taken from article PMC12751012, “Nanoscale Direct-to-Biology Optimization and Structural Insights into Selective S. aureus TrmD Inhibitors” (Journal of Medicinal Chemistry, 2025).
